# From article PMC7194404, “Arg-type dihydroflavonol 4-reductase genes from the fern Dryopteris erythrosora play important roles in the biosynthesis of anthocyanins” (PLoS ONE, 2020)
# Columns and labels:
# Test in all cases: HPLC of anthocyanidin formed from product, crude E. coli extract
# Format in all cases: biochemical
# Settings in all cases: 0.8 mM substrate, 1.6 mM NADPH, 50 mM Tris-HCl pH 7.0, 30 °C, 30 min
# DeDFR1 = target: T1, DeDFR1 (Dryopteris erythrosora, UniProt A0A5P8I1X0)
# T1 construct: gene DFR1
# T1 sequence (A0A5P8I1X0 1-328): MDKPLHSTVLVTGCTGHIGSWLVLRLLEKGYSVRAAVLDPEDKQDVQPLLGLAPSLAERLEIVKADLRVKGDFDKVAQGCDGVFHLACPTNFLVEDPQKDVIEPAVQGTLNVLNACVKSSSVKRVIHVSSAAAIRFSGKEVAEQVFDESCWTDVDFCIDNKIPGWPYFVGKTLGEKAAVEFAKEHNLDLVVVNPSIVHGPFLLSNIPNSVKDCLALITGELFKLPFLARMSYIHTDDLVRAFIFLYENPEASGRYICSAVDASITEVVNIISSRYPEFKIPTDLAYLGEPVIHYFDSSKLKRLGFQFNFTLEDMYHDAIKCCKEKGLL
# AtDFR = target: T2, AtDFR (Arabidopsis thaliana, UniProt P51102)
# T2 construct: gene DFRA; pET28a-AtDFR, E. coli BL21(DE3), crude soluble extract
# T2 sequence (P51102 1-382): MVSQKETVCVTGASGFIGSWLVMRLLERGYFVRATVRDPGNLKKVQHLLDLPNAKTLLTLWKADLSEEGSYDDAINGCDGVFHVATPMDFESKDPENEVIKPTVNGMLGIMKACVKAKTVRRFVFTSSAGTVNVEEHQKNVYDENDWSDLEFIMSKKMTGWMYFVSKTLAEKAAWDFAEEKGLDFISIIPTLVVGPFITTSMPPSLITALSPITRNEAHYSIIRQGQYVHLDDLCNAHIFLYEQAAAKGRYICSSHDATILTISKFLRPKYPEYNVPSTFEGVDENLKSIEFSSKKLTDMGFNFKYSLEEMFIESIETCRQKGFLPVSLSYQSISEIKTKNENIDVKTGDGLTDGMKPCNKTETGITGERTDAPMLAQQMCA
# DeDFR2 = target: T3, DeDFR2 (Dryopteris erythrosora, UniProt A0A5P8I1W3)
# T3 construct: gene DFR2
# T3 sequence (A0A5P8I1W3 1-341): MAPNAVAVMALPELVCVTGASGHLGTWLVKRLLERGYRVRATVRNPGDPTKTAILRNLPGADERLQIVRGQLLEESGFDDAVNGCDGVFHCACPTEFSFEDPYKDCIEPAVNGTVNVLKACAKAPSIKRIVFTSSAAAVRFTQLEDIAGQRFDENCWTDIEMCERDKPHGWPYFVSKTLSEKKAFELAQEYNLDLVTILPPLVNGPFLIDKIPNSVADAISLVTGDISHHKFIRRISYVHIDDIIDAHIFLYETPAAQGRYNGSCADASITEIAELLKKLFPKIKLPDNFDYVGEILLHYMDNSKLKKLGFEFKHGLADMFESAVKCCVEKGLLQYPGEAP
smiles,measurement,setting,value
"O=C1c2c(O)cc(O)cc2O[C@H](c2ccc(O)c(O)c2)[C@H]1O [DHQ, dihydroquercetin]","HPLC of anthocyanidin formed from product, crude E. coli extract",DeDFR1,DeDFR1 and DeDFR2 had the ability to catalyze the DHK and DHQ reaction
same,"HPLC of anthocyanidin formed from product, crude E. coli extract",AtDFR,all three dihydroflavonols could be converted to pink anthocyanins
same,"HPLC of anthocyanidin formed from product, crude E. coli extract",DeDFR2,DeDFR1 and DeDFR2 had the ability to catalyze the DHK and DHQ reaction
"O=C1c2c(O)cc(O)cc2O[C@H](c2cc(O)c(O)c(O)c2)[C@H]1O [DHM, dihydromyricetin]","HPLC of anthocyanidin formed from product, crude E. coli extract",AtDFR,all three dihydroflavonols could be converted to pink anthocyanins
"O=C1c2c(O)cc(O)cc2O[C@H](c2ccc(O)cc2)[C@H]1O [DHK, dihydrokaempferol]","HPLC of anthocyanidin formed from product, crude E. coli extract",DeDFR1,DeDFR1 and DeDFR2 had the ability to catalyze the DHK and DHQ reaction
same,"HPLC of anthocyanidin formed from product, crude E. coli extract",DeDFR2,DeDFR1 and DeDFR2 had the ability to catalyze the DHK and DHQ reaction
